In ChEMBL document CHEMBL1136674, “Antimycobacterial pimarane diterpenes from the Fungus Diaporthe sp” (Bioorg Med Chem Lett, 2003) one finds MIC and IC50 data, which are given here for five compounds.

Values after ≈ are worked out from the molar mass of the structure shown.

For orientation: MIC means the lowest concentration found to suppress growth. A lower MIC goes with inhibition by little substance. The IC50 is the midpoint of a concentration-inhibition curve. A high value points to weaker potency.

Assay [1] has as its system Mycobacterium tuberculosis. The assay can be described thus: Antitubercular activity against Mycobacterium tuberculosis. The format is functional.
Assay [2] has as its system Vero. The assay can be described thus: Cytotoxicity against vero cell line. It counts as functional, cell-based. The following applies: Chlorocebus sabaeus.
For assay [3], the system named is BC1 cell line. Nature of the assay: Cytotoxicity against BC-1 cell line. Conditions: Homo sapiens. The format is functional, cell-based.
Assay [4] has as its system KB. Nature of the assay: Cytotoxicity against KB cell line. The following applies: Homo sapiens. The format is functional, cell-based.

`C=C[C@]1(C)C=C2C(O)[C@]3(O)OC[C@@]4(CCCC(C)(C)[C@@]43O)[C@@]2(O)[C@H](O)C1` (stereo partly drawn) [DIAPORTHEIN A] displayed an MIC in assay [1] of 200 µg/mL (≈ 546 µM). Also, in assay [2], the IC50 is more than 50 µg/mL. The corresponding values for `C=C[C@]1(C)C=C2C(=O)[C@]3(O)OC[C@@]4(CCCC(C)(C)[C@@]43O)[C@@]2(O)[C@H](O)C1` [DIAPORTHEIN B] are 3.1 µg/mL (≈ 8.51 µM) and 1.5 µg/mL (≈ 4.12 µM). Take `Cc1c2ccncc2c(C)c2c1[nH]c1ccccc12` [ELLIPTECINE]: the IC50 in assay [3] and in assay [4] was 0.3 µg/mL (≈ 1.22 µM) throughout. Compound `NNC(=O)c1ccncc1` [ISONIAZID] showed an MIC in assay [1] of 0.09 µg/mL (≈ 0.656 µM). On the same count and under the same terms, with `NC[C@H]1O[C@H](O[C@H]2[C@H](O)[C@@H](O[C@H]3O[C@H](CO)[C@@H](O)[C@H](N)[C@H]3O)[C@H](N)C[C@@H]2N)[C@H](O)[C@@H](O)[C@@H]1O.O=S(=O)(O)O` [KANAMYCIN SULFATE] the figure was 5 µg/mL.
